According to patent US9302999B2, “Substituted triazoles as herbicides” (E. I. DU PONT DE NEMOURS AND COMPANY, priority 2012, dated 2016):

Tests used:
Type in all cases: in vivo
[1] = tested on: foxtail, giant (giant foxtail, Setaria faberii); test: Test C pre-/postemergence: foxtail, giant
Description: (§1) Seeds of plant species selected from blackgrass (Alopecurus myosuroides), bromegrass, downy (downy bromegrass, Bromus tectorum), foxtail, green (green foxtail, Setaria viridis), ryegrass, Italian (Italian ryegrass, Lolium multiflorum), winter wheat (Triticum aestivum), wild oat (Avena fatua), galium (catchweed bedstraw, Galium aparine), bermudagrass (Cynodon dactylon), surinam grass (Brachiaria decumbens), cocklebur (common cocklebur, Xanthium strumarium), corn (Zea mays), large crabgrass (Digitaria sanguinalis), woolly cupgrass (Eriochloa villosa), foxtail, giant (giant foxtail, Setaria faberii), goosegrass (Eleusine indica), johnsongrass (Sorghum halepense), kochia (Kochia scoparia), lambsquarters (Chenopodium album), morningglory (Ipomoea coccinea), nightshade (eastern black nightshade, Solanum ptycanthum), nutsedge, yellow (yellow nutsedge, Cyperus esculentus), pigweed (Amaranthus retroflexus), ragweed (common ragweed, Ambrosia elation), soybean (Glycine max), common (oilseed) sunflower (Helianthus annuus), Russian thistle (Salsola kali) and velvetleaf (Abutilon theophrasti) were planted into a blend of loam soil and sand and treated preemergence with test chemicals formulated in a non-phytotoxic solvent mixture which included a surfactant.
(§2) At the same time, plants selected from these crop and weed species and also barley (winter barley, Hordeum vulgare), canarygrass (Phalaris minor), chickweed (common chickweed, Stellaria media) windgrass (Apera spica-venti) and deadnettle (henbit deadnettle, Lamium amplexicaule) were planted in pots containing Redi-Earth® planting medium (Scotts Company, 14111 Scottslawn Road, Marysville, Ohio 43041) comprising spaghnum peat moss, vermiculite, wetting agent and starter nutrients and treated with postemergence applications of test chemicals formulated in the same manner. Plants ranged in height from 2 to 18 cm (1- to 4-leaf stage) for postemergence treatments.
(§3) Treated plants and controls were maintained in a greenhouse for 13 to 15 days, after which time all species were compared to controls and visually evaluated. Plant response ratings, summarized in Table C, are based on a scale of 0 to 100 where 0 is no effect and 100 is complete control. A dash (-) response means no test result.

[2] = tested on: kochia (Kochia scoparia); test: Test C pre-/postemergence: kochia
Description: as §1, §2, §3

[3] = tested on: large crabgrass (Digitaria sanguinalis); test: Test C pre-/postemergence: large crabgrass
Method in brief: (§4)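 Visual injury scored 0–100 (100 = complete control) against untreated controls after 13–15 greenhouse days. Surfactant-containing solvent formulations applied either to soil after sowing (loam/sand) or over 1- to 4-leaf plants, 2–18 cm tall.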

[4] = tested on: morningglory (Ipomoea coccinea); test: Test C pre-/postemergence: morningglory
Method in brief: as §4

[5] = tested on: ryegrass, Italian (Italian ryegrass, Lolium multiflorum); test: Test C pre-/postemergence: ryegrass, Italian
Method in brief: as §4

[6] = tested on: wild oat (Avena fatua); test: Test C pre-/postemergence: wild oat
Method in brief: as §4

[7] = tested on: galium (catchweed bedstraw, Galium aparine); test: Test C pre-/postemergence: galium
Method in brief: as §4

[8] = tested on: corn (Zea mays); test: Test C pre-/postemergence: corn
Method in brief: as §4

[9] = tested on: johnsongrass (Sorghum halepense); test: Test C pre-/postemergence: johnsongrass
Method in brief: as §4

[10] = tested on: velvetleaf (Abutilon theophrasti); test: Test C pre-/postemergence: velvetleaf
Method in brief: as §4

[11] = Postemergence, 31 g ai/ha, scale 0 to 100 (0 no effect, 100 complete control)
[12] = Postemergence, 62 g ai/ha, scale 0 to 100 (0 no effect, 100 complete control)
[13] = Postemergence, 125 g ai/ha, scale 0 to 100, 0 no effect, 100 complete control
[14] = Postemergence, 250 g ai/ha, scale 0 to 100
[15] = Preemergence, 31 g ai/ha, scale of 0 to 100, 0 is no effect, 100 is complete control
[16] = Preemergence, 62 g ai/ha, scale of 0 to 100, 0 is no effect, 100 is complete control
[17] = Preemergence, 125 g ai/ha, scale 0 to 100, 0 no effect, 100 complete control
[18] = Preemergence, 250 g ai/ha, scale 0 to 100, 0 no effect, 100 complete control
[19] = Preemergence, 62 g ai/ha, scale 0 to 100, 0 no effect, 100 complete control

Cc1nn(-c2ccc(C(F)(F)F)cn2)nc1Oc1ccnc(C(F)(F)F)c1 [Compound 23]
Plant response rating, Foxtail, Giant [1, 11]: 15
Plant response rating, Foxtail, Giant [1, 12]: 15
Plant response rating, Foxtail, Giant [1, 13]: 15
Plant response rating, Foxtail, Giant [1, 14]: 25
Plant response rating, Foxtail, Giant [1, 15]: 98
Plant response rating, Foxtail, Giant [1, 16]: 100
Plant response rating, Foxtail, Giant [1, 17]: 100
Plant response rating, Foxtail, Giant [1, 18]: 100
Plant response rating, Kochia [2, 11]: 65
Plant response rating, Kochia [2, 12]: 75
Plant response rating, Kochia [2, 13]: 80
Plant response rating, Kochia [2, 14]: 85
Plant response rating, Kochia [2, 15]: 95
Plant response rating, Kochia [2, 16]: 95
Plant response rating, Kochia [2, 17]: 95
Plant response rating, Kochia [2, 18]: 100
Plant response rating, Crabgrass, Large [3, 11]: 10
Plant response rating, Crabgrass, Large [3, 12]: 15
Plant response rating, Crabgrass, Large [3, 13]: 25
Plant response rating, Crabgrass, Large [3, 14]: 35
Plant response rating, Crabgrass, Large [3, 15]: 100
Plant response rating, Crabgrass, Large [3, 16]: 100
Plant response rating, Crabgrass, Large [3, 17]: 100
Plant response rating, Crabgrass, Large [3, 18]: 100
Plant response rating, Morningglory [4, 11]: 70
Plant response rating, Morningglory [4, 12]: 70
Plant response rating, Morningglory [4, 13]: 90
Plant response rating, Morningglory [4, 14]: 90
Plant response rating, Morningglory [4, 15]: 20
Plant response rating, Morningglory [4, 16]: 20
Plant response rating, Morningglory [4, 17]: 100
Plant response rating, Morningglory [4, 18]: 100
Plant response rating, Ryegrass, Italian [5, 11]: 5
Plant response rating, Ryegrass, Italian [5, 12]: 10
Plant response rating, Ryegrass, Italian [5, 13]: 10
Plant response rating, Ryegrass, Italian [5, 14]: 15
Plant response rating, Ryegrass, Italian [5, 15]: 0
Plant response rating, Ryegrass, Italian [5, 16]: 5
Plant response rating, Ryegrass, Italian [5, 17]: 25
Plant response rating, Ryegrass, Italian [5, 18]: 70
Plant response rating, Oat, Wild [6, 11]: 5
Plant response rating, Oat, Wild [6, 12]: 10
Plant response rating, Oat, Wild [6, 13]: 35
Plant response rating, Oat, Wild [6, 14]: 35
Plant response rating, Oat, Wild [6, 15]: 45
Plant response rating, Oat, Wild [6, 16]: 80
Plant response rating, Oat, Wild [6, 17]: 80
Plant response rating, Oat, Wild [6, 18]: 100
Plant response rating, Galium [7, 11]: 85
Plant response rating, Galium [7, 12]: 85
Plant response rating, Galium [7, 13]: 90
Plant response rating, Galium [7, 14]: 90
Plant response rating, Galium [7, 15]: 80
Plant response rating, Galium [7, 16]: 95
Plant response rating, Galium [7, 17]: 100
Plant response rating, Galium [7, 18]: 100
Plant response rating, Corn [8, 11]: 10
Plant response rating, Corn [8, 12]: 15
Plant response rating, Corn [8, 13]: 20
Plant response rating, Corn [8, 14]: 30
Plant response rating, Corn [8, 15]: 5
Plant response rating, Corn [8, 19]: 30
Plant response rating, Corn [8, 17]: 70
Plant response rating, Corn [8, 18]: 85
Plant response rating, Johnsongrass [9, 11]: 5
Plant response rating, Johnsongrass [9, 12]: 10
Plant response rating, Johnsongrass [9, 13]: 10
Plant response rating, Johnsongrass [9, 14]: 20
Plant response rating, Johnsongrass [9, 15]: 55
Plant response rating, Johnsongrass [9, 16]: 75
Plant response rating, Johnsongrass [9, 17]: 95
Plant response rating, Johnsongrass [9, 18]: 98
Plant response rating, Velvetleaf [10, 11]: 15
Plant response rating, Velvetleaf [10, 12]: 25
Plant response rating, Velvetleaf [10, 13]: 40
Plant response rating, Velvetleaf [10, 14]: 50
Plant response rating, Velvetleaf [10, 15]: 5
Plant response rating, Velvetleaf [10, 16]: 25
Plant response rating, Velvetleaf [10, 17]: 80
Plant response rating, Velvetleaf [10, 18]: 100

Cc1nn(-c2ccc(C(F)(F)F)cn2)nc1Cc1cccc(C(F)(F)F)c1 [Compound 106]
Plant response rating, Foxtail, Giant [1, 11]: 40
Plant response rating, Foxtail, Giant [1, 12]: 40
Plant response rating, Foxtail, Giant [1, 13]: 55
Plant response rating, Foxtail, Giant [1, 14]: 55
Plant response rating, Foxtail, Giant [1, 15]: 65
Plant response rating, Foxtail, Giant [1, 16]: 85
Plant response rating, Foxtail, Giant [1, 17]: 100
Plant response rating, Foxtail, Giant [1, 18]: 100
Plant response rating, Kochia [2, 11]: 85
Plant response rating, Kochia [2, 12]: 85
Plant response rating, Kochia [2, 13]: 85
Plant response rating, Kochia [2, 14]: 90
Plant response rating, Kochia [2, 15]: 0
Plant response rating, Kochia [2, 16]: 0
Plant response rating, Kochia [2, 17]: 45
Plant response rating, Kochia [2, 18]: 65
Plant response rating, Crabgrass, Large [3, 11]: 40
Plant response rating, Crabgrass, Large [3, 12]: 55
Plant response rating, Crabgrass, Large [3, 13]: 65
Plant response rating, Crabgrass, Large [3, 14]: 65
Plant response rating, Crabgrass, Large [3, 15]: 100
Plant response rating, Crabgrass, Large [3, 16]: 100
Plant response rating, Crabgrass, Large [3, 17]: 100
Plant response rating, Crabgrass, Large [3, 18]: 100
Plant response rating, Morningglory [4, 11]: 0
Plant response rating, Morningglory [4, 12]: 20
Plant response rating, Morningglory [4, 13]: 40
Plant response rating, Morningglory [4, 14]: 40
Plant response rating, Morningglory [4, 15]: 0
Plant response rating, Morningglory [4, 16]: 0
Plant response rating, Morningglory [4, 17]: 10
Plant response rating, Morningglory [4, 18]: 60
Plant response rating, Ryegrass, Italian [5, 11]: 5
Plant response rating, Ryegrass, Italian [5, 12]: 5
Plant response rating, Ryegrass, Italian [5, 13]: 20
Plant response rating, Ryegrass, Italian [5, 14]: 30
Plant response rating, Ryegrass, Italian [5, 15]: 5
Plant response rating, Ryegrass, Italian [5, 16]: 20
Plant response rating, Ryegrass, Italian [5, 17]: 45
Plant response rating, Ryegrass, Italian [5, 18]: 50
Plant response rating, Oat, Wild [6, 11]: 10
Plant response rating, Oat, Wild [6, 12]: 30
Plant response rating, Oat, Wild [6, 13]: 45
Plant response rating, Oat, Wild [6, 14]: 45
Plant response rating, Oat, Wild [6, 15]: 10
Plant response rating, Oat, Wild [6, 16]: 45
Plant response rating, Oat, Wild [6, 17]: 70
Plant response rating, Oat, Wild [6, 18]: 80
Plant response rating, Galium [7, 11]: 65
Plant response rating, Galium [7, 12]: 65
Plant response rating, Galium [7, 13]: 80
Plant response rating, Galium [7, 14]: 80
Plant response rating, Galium [7, 15]: 5
Plant response rating, Galium [7, 16]: 10
Plant response rating, Galium [7, 17]: 60
Plant response rating, Galium [7, 18]: 90
Plant response rating, Corn [8, 11]: 10
Plant response rating, Corn [8, 12]: 15
Plant response rating, Corn [8, 13]: 15
Plant response rating, Corn [8, 14]: 55
Plant response rating, Corn [8, 15]: 0
Plant response rating, Corn [8, 19]: 0
Plant response rating, Corn [8, 17]: 0
Plant response rating, Corn [8, 18]: 10
Plant response rating, Johnsongrass [9, 11]: 0
Plant response rating, Johnsongrass [9, 12]: 15
Plant response rating, Johnsongrass [9, 13]: 40
Plant response rating, Johnsongrass [9, 14]: 55
Plant response rating, Johnsongrass [9, 15]: 0
Plant response rating, Johnsongrass [9, 16]: 20
Plant response rating, Johnsongrass [9, 17]: 75
Plant response rating, Johnsongrass [9, 18]: 85
Plant response rating, Velvetleaf [10, 11]: 5
Plant response rating, Velvetleaf [10, 12]: 45
Plant response rating, Velvetleaf [10, 13]: 65
Plant response rating, Velvetleaf [10, 14]: 65
Plant response rating, Velvetleaf [10, 15]: 0
Plant response rating, Velvetleaf [10, 16]: 0
Plant response rating, Velvetleaf [10, 17]: 0
Plant response rating, Velvetleaf [10, 18]: 10
